In patent US11549147B2, “Treatment of atopic dermatitis with tradipitant” (VANDA PHARMACEUTICALS INC., priority 2017, dated 2023):

Legend:
Type in all cases: in vivo, human
[1] = tested on: responders and non-responders to tradipitant treatment of atopic dermatitis; assay: Association analysis of genetic markers with VAS response to tradipitant treatment (Example 6, Tables 10-11)
Method: A further study is performed to identify additional genetic markers that correlate directly with a positive response to tradipitant treatment. To identify the genetic markers, an association analysis is conducted using a logistic additive model. Visual Analog Scale (VAS) is used as the response outcome metric. The identified variants are shown below in Table 10.
Using the top significant SNPs chosen by p-value cutoff, individuals are classified on responder status to tradipitant treatment, with AUC of 0.95 (10 fold cross validation). Loss of function (LOF) and protein coding variants are investigated in terms of VAS outcomes on the cohort of cases.

[2] = Plasma concentration levels of tradipitant in healthy subjects (Example 2)
Method: A study is conducted in which healthy subject participants are orally administered 85 mg tradipitant on study day 3, and then 85 mg tradipitant Q12H on study days 4-16. Plasma concentration levels of tradipitant are measured on each of day 3, day 7, and day 11.
This study illustrates that administration of 85 mg tradipitant qd (on day 3) produces an average plasma concentration over hours 0-12 that is about 50% of the plasma concentration observed in the PM group in Example 1. On days 7 and 11, the average plasma concentration over hours 0-12 following administration of 85 mg bid (specifically, Q12H) tradipitant is about 150% of the plasma concentration observed in the PM group in Example 1. The average plasma concentration over hours 0-12 at each point is determined by dividing the AUC for hours 0-12 (in (hr.)×(ng/mL)) by 12 hours.

[3] = tested on: chronic pruritus in patients with atopic dermatitis; assay: Phase II proof of concept study VP-VLY-686-2101: tradipitant monotherapy vs placebo (Example 1); design: key to VAS Worst change / VAS Worst change, Diff / VAS Average change / VAS Average change, Diff: VAS points in mm; VRS change / VRS change, Diff / FBI / FBI, Diff / CGIC / CGIC, Diff: scale not given here; settings: for CGIC / DLQI change / FBI / SCORAD change / VAS Average change / VAS Worst change / VRS change: 100 mg qd evening; for CGIC, Diff / DLQI change, Diff / FBI, Diff / SCORAD change, Diff / VAS Average change, Diff / VAS Worst change, Diff / VRS change, Diff: Diff tradipitant vs placebo
Method: A phase II proof of concept clinical study (Study ID VP-VLY-686-2101, “Proof of Concept of VLY-686 in Subjects With Treatment-Resistant Pruritus Associated With Atopic Dermatitis”) is conducted, investigating the safety and efficacy of tradipitant as a monotherapy in the treatment of chronic pruritus in patients with atopic dermatitis.
In the study, patients with a Visual Analog Scale (VAS) score of greater than 70 mm during one of the two days preceding inclusion into the study are randomized to receive orally either 100 mg of tradipitant (n=34) or placebo (n=35) once a day in the evening. In the tradipitant arm of the study, tradipitant is orally administered to patients in capsules with standard excipients in an amount of 100 mg in the evening. Clinical assessments are made after 3 or 4 weeks of daily treatment, or at both 3 weeks and 4 weeks, each assessment being done in the morning of the day after last treatment or in the afternoon of the day after last treatment. The tradipitant is administered in an immediate release form comprising tradipitant and pharmaceutically acceptable excipients in a capsule. The tradipitant particle size is approximately: D10: <5 um, D50: <10 um, and D90: <25 um, wherein Dio means that 10% of the particles are of the indicated mean particle size, D50 means that 50% of the particles are of the indicated mean particle size, and D90 means that 90% of the particles are of the indicated mean particle size.
Baseline VAS scores are 76.1 and 77.2 for the tradipitant and placebo arms respectively. Efficacy is evaluated through a number of clinical research instruments. In addition, at the time of efficacy evaluation blood samples are collected for PK analysis in order to determine the plasma levels of tradipitant.

With `O=C(c1ccccc1Cl)c1cccnc1-c1nnn(Cc2cc(C(F)(F)F)cc(C(F)(F)F)c2)c1-c1ccncc1` [Tradipitant] the “response to tradipitant treatment of atopic dermatitis by genotype” value (“response to tradipitant treatment” below) ([1]; CTNNA3 rs57930837 AA genotype) was “a majority of rs57930837 AA individuals do not respond to treatment”, the “response to tradipitant treatment” value ([1]; CTNNA3 rs57930837 CA genotype) was “a majority of individuals having a CA rs57930837 genotype respond to treatment” and the “response to tradipitant treatment” value ([1]; CTNNA3 rs57930837 CC genotype) was “all individuals having a CC rs57930837 genotype respond to treatment”. For the same compound, the “average plasma concentration over hours 0-12 relative to the PM group in Example 1” value ([2]; 85 mg bid (Q12H), days 7 and 11) was “about 150%”, the “average plasma concentration over hours 0-12 relative to the PM group in Example 1” value ([2]; 85 mg qd, day 3) was “about 50%” and the adverse event profile ([3]; 100 mg qd) was “mild and similar to placebo”. For the same compound, the tolerability ([3]; 100 mg qd) was “well-tolerated”, the “endpoints corresponding to the underlying disease (SKINDEX, SCORAD objective, EASI and DLQI) vs placebo” value ([3]; 100 mg qd, 4-week study) was “do not show any significant difference from placebo” and the CGIC ([3]; AM group, 3-4 weeks) was 2.46. For the same compound, the DLQI change ([3]; AM group, 3-4 weeks) was −2.52, the FBI ([3]; AM group, 3-4 weeks) was 1.47 and the SCORAD change ([3]; AM group, 3-4 weeks) was −9.58. The “VAS Average change” value ([3]; AM group, 3-4 weeks) was −54, the “VAS Worst change” value ([3]; AM group, 3-4 weeks) was −47.9 and the VRS change ([3]; AM group, 3-4 weeks) was −1.46. The “CGIC, Diff” value ([3]; AM group) was −1.15, the “DLQI change, Diff” value ([3]; AM group) was 0.35 and the “FBI, Diff” value ([3]; AM group) was 0.74. For the same compound, the “SCORAD change, Diff” value ([3]; AM group) was −5.23, the “VAS Average change, Diff” value ([3]; AM group) was −23.7 and the “VAS Worst change, Diff” value ([3]; AM group) was −21.9. For the same compound, the “VRS change, Diff” value ([3]; AM group) was −0.79, the “CGIC, Diff” value ([3]; PM group) was 0.19 and the “DLQI change, Diff” value ([3]; PM group) was −1.89. The “FBI, Diff” value ([3]; PM group) was −0.39, the “SCORAD change, Diff” value ([3]; PM group) was 0.88 and the “VAS Average change, Diff” value ([3]; PM group) was 5.82. For the same compound, the “VAS Worst change, Diff” value ([3]; PM group) was 8.99, the “VRS change, Diff” value ([3]; PM group) was −0.13 and the CGIC ([3]; PM group, 3-4 weeks) was 2.47. The DLQI change ([3]; PM group, 3-4 weeks) was −5.45, the FBI ([3]; PM group, 3-4 weeks) was 1.01 and the SCORAD change ([3]; PM group, 3-4 weeks) was −6.29. The “VAS Average change” value ([3]; PM group, 3-4 weeks) was −28.8, the “VAS Worst change” value ([3]; PM group, 3-4 weeks) was −32.3 and the VRS change ([3]; PM group, 3-4 weeks) was −1.29. For the same compound, the “improvement from baseline on 100 mm unit Visual Analog Scale (VAS) for itch” value ([3]; all patients, 100 mg once a day in the evening, 3-4 weeks) was 40.5 mm.
